Reference: ChEMBL document CHEMBL5465560, “Selectivity Literature for EUbOPEN Chemogenomic Library” (2024)
Values belong to the compound of their own block, whether it stands above or below them.

What was measured:
[1] = target: Serine/threonine-protein kinase pim-3 (Homo sapiens) (UniProt Q86V86); experiment: Selectivity interaction (Kinase panel (literature)) EUB0001199aCl PIM3; details: at 1 µM
[2] = target: Histone-lysine N-methyltransferase SUV39H2 (Homo sapiens) (UniProt Q9H5I1); experiment: Selectivity interaction (Methyltransferase screen (Scintillation proximity assays)) EUB0000255b SUV39H2
[3] = target: T1, Serine/threonine-protein kinase ULK1 (Homo sapiens) (UniProt O75385); experiment: Selectivity interaction (Kinase panel (DSF assay)) EUB0001559a ULK1
T1 sequence (whole entry): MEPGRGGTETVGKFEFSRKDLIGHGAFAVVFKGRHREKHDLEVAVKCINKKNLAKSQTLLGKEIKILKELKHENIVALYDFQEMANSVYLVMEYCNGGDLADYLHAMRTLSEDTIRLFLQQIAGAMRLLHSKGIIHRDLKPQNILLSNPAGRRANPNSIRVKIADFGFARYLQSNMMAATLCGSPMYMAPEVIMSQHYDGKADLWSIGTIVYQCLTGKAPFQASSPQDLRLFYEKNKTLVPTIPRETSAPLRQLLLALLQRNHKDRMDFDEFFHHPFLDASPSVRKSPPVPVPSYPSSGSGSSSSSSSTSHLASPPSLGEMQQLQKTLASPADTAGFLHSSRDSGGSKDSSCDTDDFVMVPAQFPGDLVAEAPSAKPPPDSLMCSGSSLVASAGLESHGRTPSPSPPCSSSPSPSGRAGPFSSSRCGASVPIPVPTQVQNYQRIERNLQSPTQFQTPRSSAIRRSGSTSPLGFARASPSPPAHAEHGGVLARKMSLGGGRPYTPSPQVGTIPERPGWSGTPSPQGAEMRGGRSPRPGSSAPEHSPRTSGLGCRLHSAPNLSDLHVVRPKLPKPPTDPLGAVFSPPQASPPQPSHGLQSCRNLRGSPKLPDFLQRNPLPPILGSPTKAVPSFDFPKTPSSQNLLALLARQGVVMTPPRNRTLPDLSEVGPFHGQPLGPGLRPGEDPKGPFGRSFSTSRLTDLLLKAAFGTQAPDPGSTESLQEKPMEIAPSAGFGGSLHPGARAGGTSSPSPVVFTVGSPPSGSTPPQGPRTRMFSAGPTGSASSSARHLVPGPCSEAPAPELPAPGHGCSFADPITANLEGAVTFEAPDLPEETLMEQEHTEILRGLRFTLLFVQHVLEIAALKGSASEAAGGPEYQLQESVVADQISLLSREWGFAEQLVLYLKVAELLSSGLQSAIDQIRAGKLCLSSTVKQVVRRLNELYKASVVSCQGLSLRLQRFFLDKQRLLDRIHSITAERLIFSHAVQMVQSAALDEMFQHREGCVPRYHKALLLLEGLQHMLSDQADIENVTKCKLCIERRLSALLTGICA

[4] = target: Tyrosine-protein kinase Fer (Homo sapiens) (UniProt P16591); experiment: Selectivity interaction (KinaseProfiler screening (Millipore)) EUB0000601a FER; details: at 3 µM
[5] = target: T2, Phosphatidylinositol 5-phosphate 4-kinase type-2 gamma (Homo sapiens) (UniProt Q8TBX8); experiment: Selectivity interaction (KinomeScan (DiscoverX)) EUB0001079a PIP4K2C; details: at 1 µM
T2 sequence (whole entry): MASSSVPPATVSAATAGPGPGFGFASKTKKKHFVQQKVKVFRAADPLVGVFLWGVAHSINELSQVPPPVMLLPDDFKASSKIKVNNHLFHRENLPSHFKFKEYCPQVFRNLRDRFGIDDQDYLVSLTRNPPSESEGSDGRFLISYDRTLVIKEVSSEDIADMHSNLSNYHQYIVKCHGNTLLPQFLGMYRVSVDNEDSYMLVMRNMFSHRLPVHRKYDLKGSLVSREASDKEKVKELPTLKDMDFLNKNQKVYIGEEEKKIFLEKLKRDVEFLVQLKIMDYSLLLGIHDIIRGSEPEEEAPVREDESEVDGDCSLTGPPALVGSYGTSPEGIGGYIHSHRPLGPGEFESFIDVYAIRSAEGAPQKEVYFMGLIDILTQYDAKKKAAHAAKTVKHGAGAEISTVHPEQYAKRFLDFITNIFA

[6] = target: T3, Membrane-associated tyrosine- and threonine-specific cdc2-inhibitory kinase (Homo sapiens) (UniProt Q99640); experiment: Selectivity interaction (KinomeScan (DiscoverX)) EUB0000092b PKMYT1; details: at 10 µM
T3 sequence (whole entry): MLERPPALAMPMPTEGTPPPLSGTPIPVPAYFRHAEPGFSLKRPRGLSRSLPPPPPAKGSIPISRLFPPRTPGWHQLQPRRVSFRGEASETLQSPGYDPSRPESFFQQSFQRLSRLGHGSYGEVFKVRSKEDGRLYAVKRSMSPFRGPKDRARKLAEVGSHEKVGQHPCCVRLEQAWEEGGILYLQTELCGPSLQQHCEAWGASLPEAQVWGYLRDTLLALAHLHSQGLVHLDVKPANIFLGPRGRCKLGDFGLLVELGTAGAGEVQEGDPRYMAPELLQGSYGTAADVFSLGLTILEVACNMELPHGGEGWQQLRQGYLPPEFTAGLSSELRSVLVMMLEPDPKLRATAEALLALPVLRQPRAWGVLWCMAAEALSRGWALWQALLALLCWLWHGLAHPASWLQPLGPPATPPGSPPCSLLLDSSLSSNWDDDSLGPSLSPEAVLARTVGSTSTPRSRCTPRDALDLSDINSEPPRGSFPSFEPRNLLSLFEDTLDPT

[7] = target: T4, Interleukin-1 receptor-associated kinase 4 (Homo sapiens) (UniProt Q9NWZ3); experiment: Selectivity interaction (ActivX KiNativ screen (ex vivo kinase selectivity in human PBMCs)) EUB0001619a IRAK4; assay type: cell-based; details: PBMC, at 1 µM
T4 sequence (whole entry): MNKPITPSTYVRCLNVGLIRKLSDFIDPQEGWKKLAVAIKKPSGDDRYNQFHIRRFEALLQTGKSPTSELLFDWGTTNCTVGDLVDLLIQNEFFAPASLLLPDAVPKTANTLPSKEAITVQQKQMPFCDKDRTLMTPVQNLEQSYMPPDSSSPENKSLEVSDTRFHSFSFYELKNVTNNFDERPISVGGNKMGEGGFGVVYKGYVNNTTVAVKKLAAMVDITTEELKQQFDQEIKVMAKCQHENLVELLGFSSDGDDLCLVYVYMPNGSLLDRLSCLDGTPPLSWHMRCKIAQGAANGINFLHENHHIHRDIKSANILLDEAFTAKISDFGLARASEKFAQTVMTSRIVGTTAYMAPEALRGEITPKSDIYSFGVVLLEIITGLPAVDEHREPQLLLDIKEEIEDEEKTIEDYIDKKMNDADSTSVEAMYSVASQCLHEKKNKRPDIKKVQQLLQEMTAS

Chain of Histone-lysine N-methyltransferase SUV39H2 (Homo sapiens) (Q9H5I1 whole entry): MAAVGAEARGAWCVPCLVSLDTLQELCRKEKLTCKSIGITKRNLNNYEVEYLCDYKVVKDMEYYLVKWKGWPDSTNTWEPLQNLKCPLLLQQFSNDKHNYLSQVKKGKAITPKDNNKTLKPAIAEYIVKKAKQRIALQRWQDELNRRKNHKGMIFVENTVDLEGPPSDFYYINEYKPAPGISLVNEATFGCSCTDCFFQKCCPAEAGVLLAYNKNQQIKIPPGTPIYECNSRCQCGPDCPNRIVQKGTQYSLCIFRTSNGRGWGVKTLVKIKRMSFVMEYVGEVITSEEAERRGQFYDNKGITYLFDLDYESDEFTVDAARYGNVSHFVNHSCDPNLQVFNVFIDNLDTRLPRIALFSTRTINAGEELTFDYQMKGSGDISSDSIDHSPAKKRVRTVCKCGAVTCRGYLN
Chain of Tyrosine-protein kinase Fer (Homo sapiens) (P16591 whole entry, looked up): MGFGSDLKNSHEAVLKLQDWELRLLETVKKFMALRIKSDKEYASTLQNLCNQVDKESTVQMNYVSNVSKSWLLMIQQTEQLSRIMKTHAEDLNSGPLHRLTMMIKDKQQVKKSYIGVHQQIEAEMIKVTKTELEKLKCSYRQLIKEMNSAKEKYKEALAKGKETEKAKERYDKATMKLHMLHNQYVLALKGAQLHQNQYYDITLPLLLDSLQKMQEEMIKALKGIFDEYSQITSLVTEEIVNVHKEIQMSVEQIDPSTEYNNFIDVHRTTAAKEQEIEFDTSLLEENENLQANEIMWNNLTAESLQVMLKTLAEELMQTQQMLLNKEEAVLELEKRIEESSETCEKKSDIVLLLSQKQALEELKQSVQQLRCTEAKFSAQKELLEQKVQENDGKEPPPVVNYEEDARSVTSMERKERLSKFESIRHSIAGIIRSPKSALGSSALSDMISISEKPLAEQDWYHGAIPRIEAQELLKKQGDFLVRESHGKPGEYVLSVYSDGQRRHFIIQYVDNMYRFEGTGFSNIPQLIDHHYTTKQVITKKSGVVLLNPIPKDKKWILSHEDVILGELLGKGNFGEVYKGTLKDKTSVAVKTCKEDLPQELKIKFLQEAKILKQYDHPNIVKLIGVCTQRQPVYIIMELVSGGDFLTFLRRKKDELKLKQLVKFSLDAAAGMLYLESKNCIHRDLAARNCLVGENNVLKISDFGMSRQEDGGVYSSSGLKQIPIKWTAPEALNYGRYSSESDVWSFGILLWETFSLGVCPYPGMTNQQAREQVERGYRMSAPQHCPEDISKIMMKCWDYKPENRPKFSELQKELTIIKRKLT

% of inhibition [1]: 1%
SMILES: CN1Cc2nccc(-c3cn(C)nc3-c3ccc(F)cc3)c2C1=O

SMILES: COCCN1CCC(c2cc(CN(C)C(=O)c3cccc(Oc4ccccc4)c3)ccn2)CC1
% activity ([2]; at 1 µM): > 95%
% activity ([2]; at 10 µM): > 90%

dTM [3]: -1 K
SMILES: CN(C(=O)c1cnn2cccnc12)c1cc2c(cc1N1CCOCC1)C(=O)N(C[C@@H](F)C(C)(C)O)C2

% of inhibition [4]: 93%
SMILES: CCc1cc(Nc2nccc(-c3c(-c4ccc(OC)c(C(=O)Nc5c(F)cccc5F)c4)nc4ccccn34)n2)c(OC)cc1N1CCC(N2CCN(S(C)(=O)=O)CC2)CC1

SMILES: Nc1cnc(N2CCc3cc(S(=O)(=O)Nc4c(F)cc(Cl)cc4F)cc(N4CCCC4=O)c32)nc1 [TP-020n]
% of control [5]: 100%

SMILES: CCC(=O)N1CCN(c2ccc(-n3c(=O)ccc4cnc5ccc(-c6cnc7ccccc7c6)cc5c43)cc2C(F)(F)F)CC1
% of control [6]: 52%

SMILES: N#Cc1cccc(-c2c[nH]c3ncnc(N4CCOCC4)c23)c1
% of inhibition [7]: 16%
